Laboratory results: US7704995B2 (Exelixis, Inc., priority 2003, dated 2010)

Legend:
Assay in all cases: Kinase specificity assay (33P phosphoryl transfer, LCCA or AlphaScreen)
Type in all cases: biochemical
[1] = target: T1, PKCe (Homo sapiens, UniProt Q02156); settings: ATP close to KM; read-out: PKCe inhibition, IC50
T1 sequence (Q02156 1-737): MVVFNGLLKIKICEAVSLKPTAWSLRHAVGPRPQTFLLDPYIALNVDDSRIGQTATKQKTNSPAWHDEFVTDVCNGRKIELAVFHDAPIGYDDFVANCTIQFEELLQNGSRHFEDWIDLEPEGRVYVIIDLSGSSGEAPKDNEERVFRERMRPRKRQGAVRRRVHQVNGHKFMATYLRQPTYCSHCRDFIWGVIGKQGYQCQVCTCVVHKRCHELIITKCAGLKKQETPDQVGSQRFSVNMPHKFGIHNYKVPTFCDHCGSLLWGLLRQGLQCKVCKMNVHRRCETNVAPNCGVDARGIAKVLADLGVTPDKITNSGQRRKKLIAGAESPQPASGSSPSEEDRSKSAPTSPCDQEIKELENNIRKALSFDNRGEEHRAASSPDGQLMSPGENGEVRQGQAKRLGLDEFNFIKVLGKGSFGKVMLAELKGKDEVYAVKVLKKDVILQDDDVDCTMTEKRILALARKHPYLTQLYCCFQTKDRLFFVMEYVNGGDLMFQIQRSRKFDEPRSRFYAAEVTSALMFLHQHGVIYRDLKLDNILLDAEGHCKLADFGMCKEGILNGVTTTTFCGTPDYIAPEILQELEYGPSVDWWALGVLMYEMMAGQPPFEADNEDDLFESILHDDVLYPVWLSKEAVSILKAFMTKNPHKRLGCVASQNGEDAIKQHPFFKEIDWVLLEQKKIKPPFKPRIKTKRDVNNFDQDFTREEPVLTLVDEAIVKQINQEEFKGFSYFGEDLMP
Procedure: (§1) Kinase activity and compound inhibition are investigated using one or more of the three assay formats described below. The ATP concentrations for each assay are selected to be close to the Michaelis-Menten constant (KM) for each individual kinase. Dose-response experiments are performed at 10 different inhibitor concentrations in a 384-well plate format. The data are fitted to the following four-parameter equation: Y=Min+(Max−Min)/(1+(X/IC50)^H) where Y is the observed signal, X is the inhibitor concentration, Min is the background signal in the absence of enzyme (0% enzyme activity), Max is the signal in the absence of inhibitor (100% enzyme activity), IC50 is the inhibitor concentration at 50% enzyme inhibition and H represents the empirical Hill's slope to measure the cooperativity. Typically H is close to unity. ^33P Phosphoryl Transfer Assay:
(§2) Greiner 384-well white, clear bottom, high binding plates are coated with 2 μg/well of protein or peptide substrate in a 50 μL volume overnight at ambient temperature. The coating buffer typically contains 40 μg/mL substrate, 22.5 mM Na2CO3, 27.5 mM NaHCO3, 150 mM NaCl and 3 mM NaN3. The coating solution is aspirated and the plates are washed once with 50 μL of assay buffer and padded dry. Subsequently compounds and enzymes are mixed with γ^33P-ATP (3.3 μCi/nmol) in a total volume of 20 uL in suitable assay buffers. The mixture is incubated at ambient temperature for 1.5-2.5 hrs and terminated by aspiration using a Molecular Devices EMBLA 96-head plate washer. The plates are subsequently washed 6-12 times with PBST or TBS buffer. Scintillation fluid (50 μl/well) is then added, the plates are sealed and activity assessed by liquid scintillation spectrometry using a Perkin Elmer MicroBeta TriLux.
(§3) In the LCCA assays, kinase activity is measured as the percent ATP consumed following the kinase reaction using luciferase-luciferin-coupled chemiluminescence. Greiner 384-well white, clear bottom, medium binding plates are used for LCCA. Briefly, the kinase reaction is initiated by mixing compounds, ATP and kinase in a 20 uL volume. The mixture is incubated at ambient temperature for 2-4 hrs. At the end of the kinase reaction, a 20 uL luciferase-luciferin mix is added and the chemiluminescent signal is read using a Wallac Victor^2 reader. The luciferase-luciferin mix consists of 50 mM HEPES, pH 7.8, 8.5 ug/mL oxalic acid (pH 7.8), 5 (or 50) mM DTT, 0.4% Triton X-100, 0.25 mg/mL coenzyme A, 63 uM AMP, 28 ug/mL luciferin and 40,000 units of light/mL luciferase. For the LCCA assays, total ATP consumption has been standardized to 25-45% and the IC50 values correlates well with those determined by radiometric assays.
(§4) AlphaScreen technology is a proximity assay which utilizes the increase in fluorescent signal when donor and acceptor beads are close in proximity. Biotinylated poly(Glu,Tyr) 4:1 is used as the kinase substrate, in conjunction with streptavidin-coated donor beads and anti-phosphortyrosine antibody PY100-coated acceptor beads. Upon phosphorylation, the peptide substrate can bind to both donor and acceptor beads giving rise to an increase in fluorescence. Compounds, ATP, biotinylated poly(Glu, Tyr) and kinases are mixed in a volume of 20 uL for 1 hr at ambient temperature using Greiner 384-well white clear bottom medium binding plates. Following incubation a 10 uL solution containing […] AlphaScreen beads, 75 mM Hepes, pH 7.4, 300 mM NaCl, 120 mM EDTA, 0.3% BSA and 0.03% Tween-20 is added to each well. After 2-16 hr incubation of the beads, plates are read in a Perkin Elmer AlphaQuest reader. The IC50 values correlates well with those of radiometric assays.

[2] = target: PLK (Homo sapiens, UniProt P53350); settings: ATP close to KM; read-out: PLK inhibition, IC50
Procedure: as §1, §2, §3, §4

[3] = target: EGFR (Homo sapiens, UniProt P00533); settings: ATP close to KM; read-out: EGFR inhibition, IC50
Procedure: as §1, §2, §3, §4

PLK, sequence (P53350 whole entry): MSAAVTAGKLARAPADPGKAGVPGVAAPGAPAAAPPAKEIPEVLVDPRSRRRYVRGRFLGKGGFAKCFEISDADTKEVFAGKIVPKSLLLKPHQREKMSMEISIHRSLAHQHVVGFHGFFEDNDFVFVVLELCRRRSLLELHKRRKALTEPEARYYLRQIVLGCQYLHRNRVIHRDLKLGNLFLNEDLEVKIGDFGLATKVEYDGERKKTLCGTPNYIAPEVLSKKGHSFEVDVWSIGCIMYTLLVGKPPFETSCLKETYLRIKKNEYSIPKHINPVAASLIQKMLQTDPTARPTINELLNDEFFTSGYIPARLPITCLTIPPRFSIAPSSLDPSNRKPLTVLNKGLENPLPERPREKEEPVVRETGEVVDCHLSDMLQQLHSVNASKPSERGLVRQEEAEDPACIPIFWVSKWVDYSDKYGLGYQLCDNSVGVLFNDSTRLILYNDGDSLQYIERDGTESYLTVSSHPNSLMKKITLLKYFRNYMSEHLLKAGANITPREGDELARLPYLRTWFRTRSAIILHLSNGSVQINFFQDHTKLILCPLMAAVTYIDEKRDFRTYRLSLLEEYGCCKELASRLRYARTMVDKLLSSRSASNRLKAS
EGFR, sequence (P00533 25-1210): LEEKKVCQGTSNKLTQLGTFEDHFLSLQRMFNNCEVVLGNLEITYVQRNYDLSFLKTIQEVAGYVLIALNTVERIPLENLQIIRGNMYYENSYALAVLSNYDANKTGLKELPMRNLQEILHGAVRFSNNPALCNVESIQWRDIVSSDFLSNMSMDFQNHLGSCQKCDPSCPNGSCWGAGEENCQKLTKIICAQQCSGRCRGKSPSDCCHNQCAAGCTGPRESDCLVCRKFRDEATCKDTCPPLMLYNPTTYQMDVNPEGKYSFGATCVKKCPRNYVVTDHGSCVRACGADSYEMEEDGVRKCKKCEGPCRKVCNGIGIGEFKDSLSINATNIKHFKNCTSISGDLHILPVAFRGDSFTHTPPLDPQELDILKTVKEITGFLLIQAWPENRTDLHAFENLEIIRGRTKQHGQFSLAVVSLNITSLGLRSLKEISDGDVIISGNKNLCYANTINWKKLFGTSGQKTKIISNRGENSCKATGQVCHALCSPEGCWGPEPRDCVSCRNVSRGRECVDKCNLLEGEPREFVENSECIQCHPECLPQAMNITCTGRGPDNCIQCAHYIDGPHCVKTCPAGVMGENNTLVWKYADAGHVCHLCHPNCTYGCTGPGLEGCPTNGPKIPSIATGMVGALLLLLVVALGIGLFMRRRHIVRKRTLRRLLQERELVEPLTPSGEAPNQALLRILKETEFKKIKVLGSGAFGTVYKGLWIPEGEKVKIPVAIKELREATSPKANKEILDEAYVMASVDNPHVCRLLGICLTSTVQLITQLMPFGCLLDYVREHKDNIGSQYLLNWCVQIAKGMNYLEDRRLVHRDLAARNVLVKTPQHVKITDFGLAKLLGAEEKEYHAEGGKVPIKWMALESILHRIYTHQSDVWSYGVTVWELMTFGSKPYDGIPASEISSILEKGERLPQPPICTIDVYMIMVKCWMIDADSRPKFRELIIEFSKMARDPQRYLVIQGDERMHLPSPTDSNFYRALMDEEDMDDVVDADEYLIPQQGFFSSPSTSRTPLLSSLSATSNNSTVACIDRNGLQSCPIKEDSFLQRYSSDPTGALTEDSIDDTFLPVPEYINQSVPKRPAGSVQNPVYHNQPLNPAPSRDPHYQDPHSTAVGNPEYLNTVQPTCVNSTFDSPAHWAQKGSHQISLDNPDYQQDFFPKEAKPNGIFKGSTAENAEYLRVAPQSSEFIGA

SMILES: NC(=O)c1nc(-c2cccc3ccccc23)cnc1N [Example 2, 3-Amino-6-naphthalen-1-ylpyrazine-2-carboxamide]
- IC50 [1]: ≥ 10 µM
- IC50 [2]: 1 to 10 µM
- IC50 [3]: ≥ 10 µM
